# According to patent US12649980B2, “Three-dimensional surface for protein and small molecule microarrays” (The Johns Hopkins University, priority 2019, dated 2026):
# Columns and labels:
# GLUT1 [1] = target: T1, GLUT1 (Homo sapiens, UniProt P11166); test: rapafucin 3D microarray screen with GLUT1-containing cell lysate; type: binding; details: signal-to-background ratio, 3D surface, lysate of GLUT1-overexpressing HEK293T; hit if SBR > 3
# T1 construct: The full-length human SLC2A1, SLC2A3, and SLC2A4 genes were PCR amplified and inserted into pLenti6M vector 2; expressed in transfected cells
# T1 sequence (P11166 1-492): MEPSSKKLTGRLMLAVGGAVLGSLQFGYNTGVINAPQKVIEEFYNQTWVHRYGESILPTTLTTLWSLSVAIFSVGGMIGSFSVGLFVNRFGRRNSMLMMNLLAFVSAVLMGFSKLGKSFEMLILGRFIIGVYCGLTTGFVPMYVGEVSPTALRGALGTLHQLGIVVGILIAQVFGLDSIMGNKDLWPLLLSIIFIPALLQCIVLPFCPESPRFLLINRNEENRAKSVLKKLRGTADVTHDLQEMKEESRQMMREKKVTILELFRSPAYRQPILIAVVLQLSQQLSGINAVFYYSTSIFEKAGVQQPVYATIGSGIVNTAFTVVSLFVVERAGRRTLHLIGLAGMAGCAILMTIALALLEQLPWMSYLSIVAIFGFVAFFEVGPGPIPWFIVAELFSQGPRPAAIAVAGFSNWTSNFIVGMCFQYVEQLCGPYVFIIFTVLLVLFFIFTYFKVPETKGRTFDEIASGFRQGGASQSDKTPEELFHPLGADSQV
# From the text: (§1) Once stock solutions of the rapafucin library were arrayed on the 2D or 3D surface and most of solvent carrier was evaporated, the crosslinking reaction was initiated by irradiating the surfaces with 365-nm wavelength UV light. Kawatani and Osada, Medchemcomm 2014, 5, 277-287. […] To screen for GLUT1-interacting rapafucins, GLUT1 was stably overexpressed in HEK293T cells and generated cell lysates containing detergent-solubilized recombinant GLUT1 (FIG. 10). The GLUT1-containing cell lysate was then incubated on both 2D and 3D rapafucin microarrays. After washing the slides to remove unbound proteins, the bound GLUT1 protein was detected with anti-GLUT1 antibodies, followed by visualization with Cy5-labeled secondary antibodies using a microarray scanner. Rapafucins were scored as positive hits when the corresponding SBR was greater than 3. Based on this criterion, a total of 17 rapafucin hits and one positive control BAY-876, a specific GLUT1 inhibitor, Siebeneicher et al., ChemMedChem 2016, 11, 2261-2271, were identified on the 3D rapafucin microarray. In contrast, only one hit (WL13-F11, also among the 17 hits identified from the 3D rapafucin microarray) was identified on the 2D rapafucin microarray (Table 1, FIG. 11).
# The amine substrates (Arrayit, SMM) were immerged in a mixture of 2-bromoisobutyryl bromide (BIBB, 0.1 mM, as initiator) and propionyl bromide (10 mM, as horizontal spacer) with triethylamine (15 mM) in DCM for 4 hours. A degassed polymerization reaction mixture, containing copper (II) chloride dihydrate (CuCl2, 4 mmol), 2,2′-bipyridine (2 mmol), 75 mmol monomers mixture of 2-(dimethylamino)ethyl methacrylate (DMAEMA) and poly(ethylene glycol) methacrylate (PEGMA Mn 360) in 500 mL Milli-Q/MeOH, was mixed with freshly made ascorbic acid (4 mmol). The mixture was applied to 50 slides for 6 hours under the argon atmosphere for the surface-initiated polymerization. A gradient ratio of PEGMA and DMAEMA was set, including 10:0, 8:2, 5:5, 2:8 and 0:10 for an optimization purpose. The terminals of the brushes were further functionalized by N,N′-disuccinimidyl carbonate (DSC, 10 mM) and 4-dimethylaminopyridine (DMAP,10 mM) in DMF overnight to form succinimidyl carbonate intermediate, and, successively, diazirine linker 1 (10 mM) and N,Ndiisopropylethylamine (DIPEA, 50 mM) in DMF for 2 hours to couple the photoaffinity linker in dark at room temperature. At the end, the substrates were immerged in a 50 mM ethanolamine in DMF to block the residual carboxylic moiety. The slides were thoroughly washed by DMF, EtOH and DCM and dried in a fuming cupboard and ready for spotting.
# 10 mM of rapafucins in DMSO from the library were spotted onto the slides with a high-precision microarrayer (Nanoprint, Arrayit, CA) for a desired pattern in dark, which was loaded with 16 100-μm diameter micro-spotting pins. The pin heads were thoroughly washed and sonicated in ethanol and dried for 4 times under a compassed air between each sample loading. After overnight evaporation, the slides were exposed to 365-nm wavelength UV irradiation for 4 J/cm^2 by CL-1000L UV crosslinker (UVP, CA) for rapafucins covalent immobilization. The slides were ultrasonic cleaned successively in DCM, MeOH and Milli-Q water and stored in a −20° C. freezer.
# (§2) In the optimization experiments, the slides were incubated with 50 nM purified recombinant FKBP12 for 1 hour, while in the GLUT1 screening, 10 mg/mL of cell lysate containing DDM-solubilized GLUT1 from GLUT1 overexpressed HEK293T was incubated for 1 hour. Successively, primary antibody and CY5 labeled secondary antibody were added for 1 hour. The chips were washed in buffer A for 5 mins 3 times after the sample and antibodies incubation. After centrifugation, the dried chips were scanned by a microarray scanner (Genepix, US) at 635-nm wavelength. The final result was analyzed by GenePix software.
# GLUT1 [2] = target: T1, GLUT1; test: rapafucin 2D microarray screen with GLUT1-containing cell lysate; type: binding; details: signal-to-background ratio, 2D surface, same lysate and conditions
# From the text: as §1, §2
# A549 cells = test: [3H]-2DG uptake assay in A549 cells; type: cell-based, human; details: 10 min incubation with compound, mean ± s.d., n = 3
# Procedure: To determine which of the 17 rapafucin hits inhibited the transporter activity of GLUT1, an orthogonal glucose uptake assay using 2-deoxy-D-[3H] glucose ([3H]-2DG), a nonhydrolyzable, radioactive glucose analog, was employed. Each hit was separately incubated with A549 cells for 10 min before the amount of [3H]-2DG taken up by the cells was measured using scintillation counting. […] The effect of JW11-D2 on uptake of [3H]-2DG in human red blood cells that exclusively express GLUT1 was then determined. Helgerson and Carruthers, J. Biol. Chem. 1987, 262, 5464-5475. […] To further improve the potency of JW11-D2, a structure-activity relationship (SAR) study was performed by synthesizing 21 new analogs of JW11-D2 using different amino acid building blocks.
# The inhibitory activity of compounds on glucose transport was analyzed by measuring the cell uptake of [3H]-2DG as previously described. Ulanovskaya et al., Chem. Biol. 2011, 18, 222-230. Briefly, cells were washed twice and incubated in low-glucose medium for 10 min. Cells were added drugs and incubated for another 10 min before adding [3H]-2DG. After 10 min incubation with [3H]-2DG, cells were washed twice and lysed with 0.2 N NaOH plus 0.2% SDS. The cell lysate was transferred to a new tube containing 1 mL of optiphase supermix. Glucose uptake was quantified with a scintillation counter.
SMILES,3D SBR (GLUT1 [1]),2D SBR (GLUT1 [2]),IC50 (A549 cells) [µM]
COc1ccc(CC[C@H]2OC(=O)[C@@H]3CCCCN3C(=O)C(=O)C(C)(C)COC(=O)C=CCCN(C)C(=O)[C@H](Cc3ccccc3)N(C)C(=O)CCNC(=O)CN(C)C(=O)[C@H](Cc3ccc(O)cc3)NC(=O)COc3cccc2c3)cc1OC [WL05-D8],6.4 ± 1.8,<3.0,> 3
CCCC[C@H]1C(=O)N2CCC[C@@H]2C(=O)N(C)CCC=CC(=O)OCC(C)(C)C(=O)C(=O)N2CCCC[C@H]2C(=O)O[C@H](CCc2ccc(OC)c(OC)c2)c2cncc(c2)OCC(=O)N(C)CC(=O)N[C@@H](Cc2ccccc2)C(=O)N1C [WL11-G9],3.9 ± 0.3,<3.0,> 3
CCCC1C(=O)NCC(=O)N(C)CCC=CC(=O)OCC(C)(C)C(=O)C(=O)N2CCCCC2C(=O)OC(CCc2ccc(OC)c(OC)c2)c2cccc(c2)NC(=O)CCC(=O)N(C)C(CC(C)C)C(=O)NC(Cc2ccccc2)C(=O)N1C (centres unmarked) [JW11-D2-8],,,> 3
CCC(C)C1C(=O)NC(Cc2ccccc2)C(=O)N(C)C(C(C)CC)C(=O)NCC(=O)N(C)CCC=CC(=O)OCC(C)(C)C(=O)C(=O)N2CCCCC2C(=O)OC(CCc2ccc(OC)c(OC)c2)c2cccc(c2)NC(=O)CCC(=O)N1C (centres unmarked) [JW11-D2-17],,,> 3
CCC(C)C1C(=O)N(C)CC(=O)N(C)CCC=CC(=O)OCC(C)(C)C(=O)C(=O)N2CCCCC2C(=O)OC(CCc2ccc(OC)c(OC)c2)c2cccc(c2)NC(=O)CCC(=O)N(C)C(CC(C)C)C(=O)NC(Cc2ccccc2)C(=O)N1C (centres unmarked) [JW11-D2-1],,,> 3
CCCC1C(=O)NC(Cc2ccccc2)C(=O)N(C)C(C(C)CC)C(=O)NCC(=O)N(C)CCC=CC(=O)OCC(C)(C)C(=O)C(=O)N2CCCCC2C(=O)OC(CCc2ccc(OC)c(OC)c2)c2cccc(c2)NC(=O)CCC(=O)N1C (centres unmarked) [JW11-D2-18],,,> 3
CCC(C)C1C(=O)NCC(=O)N(C)CCC=CC(=O)OCC(C)(C)C(=O)C(=O)N2CCCCC2C(=O)OC(CCc2ccc(OC)c(OC)c2)c2cccc(c2)NC(=O)CCC(=O)N(C)C(CC(C)C)C(=O)NC(CCc2ccccc2)C(=O)N1C (centres unmarked) [JW11-D2-10],,,> 3
CCC(C)C1C(=O)NC(Cc2ccccc2)C(=O)N(C)CCC=CC(=O)OCC(C)(C)C(=O)C(=O)N2CCCCC2C(=O)OC(CCc2ccc(OC)c(OC)c2)c2cccc(c2)OCC(=O)N(C)CC(=O)NC(Cc2ccc(F)cc2)C(=O)N1C (centres unmarked) [HP05-F5],7.9 ± 2.6,<3.0,> 3
CCC(C)C1C(=O)NCC(=O)N(C)CCC=CC(=O)OCC(C)(C)C(=O)C(=O)N2CCCCC2C(=O)OC(CCc2ccc(OC)c(OC)c2)c2cccc(c2)NC(=O)CCC(=O)NC(CC(C)C)C(=O)NC(Cc2ccccc2)C(=O)N1C (centres unmarked) [JW11-D2-16],,,> 3
CCC(C)C1C(=O)NCC(=O)N(C)CCC=CC(=O)OCC(C)(C)C(=O)C(=O)N2CCCCC2C(=O)OC(CCc2ccc(OC)c(OC)c2)c2cccc(c2)NC(=O)CCC(=O)N(C)C(Cc2ccccc2)C(=O)NC(Cc2ccccc2)C(=O)N1C (centres unmarked) [JW11-D2-21],,,> 3
CCC(C)C1C(=O)NCC(=O)N(C)CCC=CC(=O)OCC(C)(C)C(=O)C(=O)N2CCCCC2C(=O)OC(CCc2ccc(OC)c(OC)c2)c2cccc(c2)NC(=O)CCC(=O)N(C)C(CC(C)C)C(=O)NC(CC(C)C)C(=O)N1C (centres unmarked) [JW11-D2-15],,,> 3
CCC(C)C1C(=O)NCC(=O)N(C)CCC=CC(=O)OCC(C)(C)C(=O)C(=O)N2CCCCC2C(=O)OC(CCc2ccc(OC)c(OC)c2)c2cccc(c2)NC(=O)CCC(=O)N(C)C(CC(C)C)C(=O)N(C)C(Cc2ccccc2)C(=O)N1C (centres unmarked) [JW11-D2-14],,,0.0385 ± 0.0047
CCC(C)C1C(=O)NCC(=O)N(C)CCC=CC(=O)OCC(C)(C)C(=O)C(=O)N2CCCCC2C(=O)OC(CCc2ccc(OC)c(OC)c2)c2cccc(c2)NC(=O)CCC(=O)N(C)C(CC(C)C)C(=O)NC(Cc2ccc(O)cc2)C(=O)N1C (centres unmarked) [JW11-D2-13],,,> 3
CCC(C)C1C(=O)N2CCCC2C(=O)N(C)CCC=CC(=O)OCC(C)(C)C(=O)C(=O)N2CCCCC2C(=O)OC(CCc2ccc(OC)c(OC)c2)c2cccc(c2)NC(=O)CCC(=O)N(C)C(CC(C)C)C(=O)NC(Cc2ccccc2)C(=O)N1C (centres unmarked) [JW11-D2-2],,,> 3
COc1ccc(CCC2OC(=O)C3CCCCN3C(=O)C(=O)C(C)(C)COC(=O)C=CCCN(C)C(=O)CNC(=O)C(CC(C)C)N(C)C(=O)C(Cc3ccccc3)NC(=O)C(CC(C)C)N(C)C(=O)CCC(=O)Nc3cccc2c3)cc1OC (centres unmarked) [JW11-D2-9],,,> 3
COc1ccc(CCC2OC(=O)C3CCCCN3C(=O)C(=O)C(C)(C)COC(=O)C=CCCN(C)C(=O)CNC(=O)C(C(C)C)N(C)C(=O)C(Cc3ccccc3)NC(=O)C(CC(C)C)N(C)C(=O)CCC(=O)Nc3cccc2c3)cc1OC (centres unmarked) [JW11-D2-4],,,0.0302 ± 0.0023
CCCCC1C(=O)NC(Cc2ccccc2)C(=O)N(C)C(C(C)CC)C(=O)NCC(=O)N(C)CCC=CC(=O)OCC(C)(C)C(=O)C(=O)N2CCCCC2C(=O)OC(CCc2ccc(OC)c(OC)c2)c2cccc(c2)NC(=O)CCC(=O)N1C (centres unmarked) [JW11-D2-19],,,> 3
CCC(C)C1C(=O)NCC(=O)N(C)CCC=CC(=O)OCC(C)(C)C(=O)C(=O)N2CCCCC2C(=O)OC(CCc2ccc(OC)c(OC)c2)c2cccc(c2)NC(=O)CCC(=O)N(C)C(C(C)C)C(=O)NC(Cc2ccccc2)C(=O)N1C (centres unmarked) [JW11-D2-20],,,0.0623 ± 0.0051
CCC(C)C1C(=O)N2CCCC2C(=O)N(C)CCC=CC(=O)OCC(C)(C)C(=O)C(=O)N2CCCCC2C(=O)OC(CCc2ccc(OC)c(OC)c2)c2cccc(c2)NC(=O)CCC(=O)N(C)C(CC(C)C)C(=O)NC(Cc2ccccc2)C(=O)N1C (centres unmarked) [JW11-D2-3],,,> 3
CCCCC1C(=O)NCC(=O)N(C)CCC=CC(=O)OCC(C)(C)C(=O)C(=O)N2CCCCC2C(=O)OC(CCc2ccc(OC)c(OC)c2)c2cccc(c2)NC(=O)CCC(=O)N(C)C(CC(C)C)C(=O)NC(Cc2ccccc2)C(=O)N1C (centres unmarked) [JW11-D2-7],,,> 3
